Legend:
[1] = tested on: macrolide-responsive control system (ET1, E-VP16; PETR3-SAMY-pA); assay: Compatibility test: macrolide-responsive (EOFF) SAMY production in CHO-PEACE8 (pWW35, pBP100); assay type: cell-based; conditions: CHO-PEACE8 transiently transfected with macrolide-responsive control system; Phl 50 μM, EM 2 μg/mL; 48 h; 100 = no inducer
Source text: (§1) To evaluate the functional compatibility of PEACE with the established tetracycline— [TETOFF; Gossen M., Bujard H., 1992, Proc Natl Acad Sci USA 89(12):5547-5551] and macrolide— [EOFF; Weber W., et al., 2002, Nat Biotechnol 20(9):901-907] responsive expression circuits CHO-PEACE8 is transiently transfected, transgenic for phloretin-responsive SEAP expression, with either the TETOFF-(pSAM200, PSV40-tTA-pA; pBP99, PhCMV*-1-SAMY-pA) or the EOFF-(PWW35, PSV40-ET1-pA; pBP100, PETR3-SAMY-pA) system set to control the Bacillus stearothermophilus-derived secreted α-amylase (SAMY) in response to tetracycline and erythromycin, respectively. SEAP and SAMY expression are scored 48 h after cultivation of the transfected populations in the presence (50 μM; 2 μg/mL) or absence of the inducer molecules (phloretin, tetracycline, erythromycin).

[2] = target: T1, tetracycline-responsive control system (PSV40-tTA-pA; PhCMV*-1-SAMY-pA) (Escherichia coli, UniProt P04483); assay: Compatibility test: tetracycline-responsive (TETOFF) SAMY production in CHO-PEACE8 (pSAM200, pBP99); assay type: cell-based; conditions: CHO-PEACE8 transiently transfected with tetracycline-responsive control system; Phl 50 μM, Tet 2 μg/mL; 48 h; 100 = no inducer
T1 construct: expressed in transfected cells; host or cells: CHO-PEACE8 transiently transfected with pSAM200 and pBP99
T1 sequence (P04483 whole entry, added parts left off): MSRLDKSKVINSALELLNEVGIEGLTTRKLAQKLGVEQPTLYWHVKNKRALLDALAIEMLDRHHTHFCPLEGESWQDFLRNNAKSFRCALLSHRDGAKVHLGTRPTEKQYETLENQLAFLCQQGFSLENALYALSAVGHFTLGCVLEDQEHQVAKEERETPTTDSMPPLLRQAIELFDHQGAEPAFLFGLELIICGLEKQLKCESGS
Source text: as §1

CHO-K1 = assay: Impact of phloretin on CHO-K1 engineered for constitutive SEAP expression (SEAP production, viable cell density); assay type: cell-based, Chinese hamster; conditions: 48 h
Procedure: CHO-K1 engineered for constitutive SEAP expression are cultivated in culture medium supplemented with different phloretin concentrations (0-100 μM) and SEAP production (bars) as well as maximum cell density are assessed after 48 h (line). Abbreviations: C.D.: Cell Density (10^6/mL); Phl.: Phloretin (μM)
To evaluate the stability of phloretin in culture medium and assess its impact on mammalian cells, standard ChoMaster® HTS medium is supplemented with increasing concentrations of phloretin (0, 25, 50, 75, 100 μM), and this medium is incubated in the presence and absence of CHO-K1 engineered for constitutive SEAP expression (pSEAP2-Control; PSV40-SEAP-pA, Clontech). […] Phloretin levels determined over a period of 64 h in cell-free culture medium establish a functional half-live of 70 h for this flavonoid.

TtgA2 (TtgR-p65) = assay: PEACE: SEAP expression after transient co-transfection of pMG10 and pMG18 (PSV40-TtgA2-pA); assay type: cell-based, Pseudomonas putida DOT-T1E; conditions: 48 h
Source text: Three different transactivators are designed, harboring either the VP16 (TtgA1; pMG11, TtgR-VP16) (Triezenberg S. J. et al., loc. cit.), the p65 (TtgA2; pMG18, TtgR-p65) (Urlinger S., et al., 2000, Gene 247(1-2):103-110) or the human E2F4 (TtgA3; pMG19, TtgR-E2F4) (Akagi K., Kanai M., Saya H., Kozu T., Berns A., 2001, Nucleic Acids Res 29(4):e23) transactivation domains. pMG11, pMG18 or pMG19 are co-transfected with pMG10 (PTtgR1-SEAP-pA) into CHO-K1, HEK-293 as well as primary human fibroblasts and keratinocytes, and SEAP expression is profiled after 48 h of cultivation in the presence or absence of 50 μM phloretin. […] All transactivators mediate similar basal expression levels when phloretin is […] in the medium, but due to their cell-type specificity and graded maximum transcription-initiation capacities, the three transactivators offer a selection of defined expression windows.

TtgA1 (TtgR-VP16) = TtgA1 (TtgR-VP16) (Pseudomonas putida, UniProt Q9AIU0); assay: Autoregulated PEACE-controlled SEAP expression (pMG13) in CHO-K1; assay type: cell-based; parameters: expressed in transfected cells; host or cells: CHO-K1 (transient pMG11 or pMG13); also HEK-293, BHK-21, COS-7, HaCaT, HT-1080, NIH/3T3, primary human fibroblasts and keratinocytes; conditions: 50 μM phloretin, 48 h
Chain of TtgA1 (TtgR-VP16) (Q9AIU0 whole entry, added parts left off): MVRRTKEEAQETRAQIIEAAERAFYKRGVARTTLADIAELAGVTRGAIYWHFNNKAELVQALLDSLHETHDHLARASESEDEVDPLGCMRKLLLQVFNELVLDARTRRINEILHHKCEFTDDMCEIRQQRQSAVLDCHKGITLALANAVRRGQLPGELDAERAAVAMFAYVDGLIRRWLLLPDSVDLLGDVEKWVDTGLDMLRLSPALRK

SMILES: O=C(CCc1ccc(O)cc1)c1c(O)cc(O)cc1O [phloretin, 3-[4-hydroxyphenyl]-1-[2,4,6-trihydroxyphenyl]-1-propanone]
- Relative SAMY Production (%) [1]: 100.6 ± 7.0%
- Relative SAMY Production (%) [2]: 98.1 ± 2.8%
- impact on heterologous protein (SEAP) production (CHO-K1; CHO-K1 constitutive SEAP (pSEAP2-Control), phloretin 0, 25, 50, 75, 100 μM): no negative impact on heterologous protein production
- viable cell density / CHO-K1 proliferation (CHO-K1; phloretin up to 100 μM): does not compromise CHO-K1 proliferation
- SEAP Production (TtgA2 (TtgR-p65); CHO-K1, phloretin 50 μM): 0.8 ± 0.05 U/L
- SEAP Production (TtgA2 (TtgR-p65); HEK-293, phloretin 50 μM): 1.9 ± 0.1 U/L
- SEAP Production (TtgA2 (TtgR-p65); HaCaT, phloretin 50 μM): 0.5 ± 0.05 U/L
- SEAP Production (TtgA2 (TtgR-p65); human primary fibroblasts, phloretin 50 μM): 0.2 ± 0.02 U/L
- SEAP Production (TtgA2 (TtgR-p65); human primary keratinocytes, phloretin 50 μM): 0.3 ± 0.02 U/L
- SEAP expression (autoregulated circuit) (TtgA1 (TtgR-VP16)): completely repressed

Source: patent US8653046B2, “Controlling transgene expression across the skin” (ETH Zurich, priority 2009, dated 2014)
